The source of these data is ChEMBL document CHEMBL3507680, “University of Dundee, Gates Library screen for HepG2 cell viability”.

The nature of the data set: Human HepG2 cell viability assay in 384 well format. The class given is toxicity, cell-based. More on the design: dose 125 nL, time 70.5 hour; concentration not given beside the values. As to conditions: HepG2 cells, read-out: Inhibition.
For the compound `O=C1CC(c2ccsc2)c2c(n(C3CCOCC3)[nH]c2=O)N1` (centres undefined), the cytotoxicity at 70.5 h amounted to 14.8%.
`COc1ccc(C(=O)NCCCn2ccnc2)c(OC)n1`: the cytotoxicity at 70.5 h was found to be 39.9%.
`COc1ccc(OC)c(Sc2ncccc2C(=O)N(C)CCC#N)c1`: the cytotoxicity at 70.5 h amounted to 5.96%.
As for `CN(C)c1ccc(C(=O)NCC2(c3ccccc3)CCOCC2)cc1`, the cytotoxicity at 70.5 h is -10.7%.
In the case of `COc1ccc(OC)c(NC(=O)N2CCCC2c2ccco2)c1` (centres undefined), the cytotoxicity at 70.5 h was -12.9%.
Next, `O=C(CSC1=NS(=O)(=O)c2cc(F)ccc2N1)c1ccc(Cl)cc1`: -17.3%.
Next, `COC(=O)c1cccc(C(=O)N2CCN(c3cccc(C)c3C)CC2)n1`: -14.1%; `CCn1nc(C)c2ccn(CC(=O)NC3CCCC3)c(=O)c21`: -1.39%; `CNC(=O)CSc1nc2c(cnn2Cc2ccc(F)cc2)c(=O)[nH]1`: 13.5%.
Next, `COC(=O)CCc1c(C)nn(-c2nc(C)cc(=O)[nH]2)c1C`: 36.4%; `CN1C(=O)C(C)(C)COc2cc(NS(=O)(=O)c3ccccc3)ccc21`: 8.64%.
Consider `CN1C(=O)C(C)(C)COc2cc(NS(=O)(=O)Cc3ccccc3)ccc21`, for which the cytotoxicity at 70.5 h was found to be 9.19%.
Regarding `CCc1cc(=O)[nH]c2nnc(SCC(=O)OC)n12`, the cytotoxicity at 70.5 h is 9.93%.
With `CCCNC(=O)CSc1nnc2[nH]c(=O)cc(CC)n12`, the cytotoxicity at 70.5 h was 11.1%.
`CCc1cnc2c(c1Nc1ccncc1)c(=O)n(C)c(=O)n2C`: the cytotoxicity at 70.5 h is 20.3%.
With `CCCNC(=O)Cn1nc(C(C)C)c2cnn(C(C)(C)C)c2c1=O`, the cytotoxicity at 70.5 h was -0.765%.
On to `COc1cccc(CNC(=O)CC2CSc3ncc(C)c(=O)n32)c1` (centres undefined), for which the cytotoxicity at 70.5 h was determined as 10.1%.
Consider `CCOC(=O)c1sc(NC(=O)CN(C)S(C)(=O)=O)c(C#N)c1C`, for which the cytotoxicity at 70.5 h came to 26.2%.
Regarding `O=c1nc(SCc2cccnc2)c2c(n1CCO)CCC2`, the cytotoxicity at 70.5 h is -7.99%.
As for `O=c1nc(SCc2ccncc2)c2c(n1CCO)CCCC2`, the cytotoxicity at 70.5 h turned out to be 14.9%.
Regarding `CCCc1nnsc1C(=O)NCC1CCN(c2ccccn2)CC1`, the cytotoxicity at 70.5 h is -6.19%.
Next, `O=C(Cn1cnc(-c2ccccc2)cc1=O)Nc1ccncc1`: -9.96%.
On to `COCCNC(=O)CCc1c(C)nn(-c2nc(C)c(C)c(=O)[nH]2)c1C`, for which the cytotoxicity at 70.5 h was -1.63%.
In the case of `COc1cccc(C(=O)NCC(O)c2cccs2)c1` (centres undefined), the cytotoxicity at 70.5 h is -0.864%.
Regarding `O=C(NCC(O)c1cccs1)c1cccc(Cl)c1` (centres undefined), the cytotoxicity at 70.5 h is -2.42%.
For `Cc1ccc(N2CCN(C(=O)COc3nccc(C)n3)CC2)nn1`, the cytotoxicity at 70.5 h is 16%.
`O=C(NCC1(CO)CC1)c1cccc2ccccc12`: the cytotoxicity at 70.5 h was determined as 2.2%.
In the case of `Cc1noc(C)c1CCC(=O)N1CCN(CCn2cccn2)CC1`, the cytotoxicity at 70.5 h was found to be 14.6%.
As for `O=S(=O)(NCC1CCN(c2cnccn2)CC1)c1c(F)cccc1F`, the cytotoxicity at 70.5 h was -9.72%.
Consider `CNc1cc(CCNC(=O)CC(C)C)nc(-c2ccccn2)n1`, for which the cytotoxicity at 70.5 h was -7.32%.
Consider `CNc1cc(CCNS(=O)(=O)c2ccccc2)nc(-c2ccccn2)n1`, for which the cytotoxicity at 70.5 h is -14.6%.
Regarding `CNc1cc(CCNC(=O)C2CCCC2)nc(-c2ccccn2)n1`, the cytotoxicity at 70.5 h is -8.09%.
Turning to `CCC1c2cccn2CCN1S(=O)(=O)N1CCOCC1` (centres undefined), the cytotoxicity at 70.5 h was 11.2%.
Consider `CCOc1ccc([C@@H]2N[C@H](c3nccs3)Cc3ccsc32)cc1OC`, for which the cytotoxicity at 70.5 h is -7.07%.
Next, `COc1cccc([C@@H]2N[C@H](c3nccs3)Cc3ccsc32)c1OC`: -12.9%.
For the compound `C=Cn1cc(CN2CCN(CC3(c4ccccc4)CC3)CC2)c(C)n1`, the cytotoxicity at 70.5 h was -2.78%.
Turning to `Cc1csc2c(C3CCN(CCOc4ccccc4F)CC3)nc(C)n12`, the cytotoxicity at 70.5 h stood at 18.2%.
As to `Cc1cc(-c2cc(N)c(=O)n(CC(=O)NC3CCCCC3)n2)c(C)o1`, the cytotoxicity at 70.5 h is -15.5%.
As for `Cn1ccnc1C(O)c1ccccc1N1CCN(Cc2ccsc2)CC1` (centres undefined), the cytotoxicity at 70.5 h is -5.94%.
As to `CN1C[C@@H](C(=O)NC(C)(C)C)[C@@]2(COc3ccc(F)cc3C2=O)C1`, the cytotoxicity at 70.5 h was -1.75%.
For the compound `O=C(CC1CCCC1)N1CCC(c2noc(-c3ccccn3)n2)CC1`, the cytotoxicity at 70.5 h is 6.76%.
Next, `CC(C)(C)C(=O)NCCc1cc2nc(-c3ccncc3)ccn2n1`: 1.86%; `CN(C)Cc1cnc(C2CCN(C(=O)c3cccc(Cl)c3)C2)[nH]1` (centres undefined): -3.59%; `COc1ccccc1CN(C)Cc1ccnc(C2CCCO2)n1` (centres undefined): -2.34%.
For the compound `Cc1noc(C)c1-c1cc(CCC2CN(CCC(N)=O)CCO2)ncn1` (centres undefined), the cytotoxicity at 70.5 h was -2.2%.
Take `COCCC(=O)N1CCOCC(Cc2ccc3c(ccn3C)c2)C1` (centres undefined): the cytotoxicity at 70.5 h was -6.26%.
Regarding `Cc1ccccc1C(=O)N1C[C@@H](O)[C@H](N2CCOCC2)C1`, the cytotoxicity at 70.5 h was -3.66%.
As for `Cc1cc(N(C)Cc2ncc(-c3ccccc3C(=O)O)s2)ncn1`, the figure is 16.7%.
As to `CC1(C(=O)N2CCOCC2)CN(CC2CCOCC2)CCO1` (centres undefined), the cytotoxicity at 70.5 h was -0.606%.
`c1cc(CN2CCCCC2c2ccc(Nc3cnccn3)nc2)ccn1` (centres undefined): the cytotoxicity at 70.5 h is -4.05%.
`CN1CCN(C(=O)CCn2nnc3ccccc32)CC(C(N)=O)C1` (centres undefined): the cytotoxicity at 70.5 h is -1.08%.
Next, `CNC(=O)C1CN(C(=O)c2ccncc2)CCN(S(C)(=O)=O)C1` (centres undefined): 22.7%; `Cc1nccc(C2CN(Cc3ccc(-c4ccccc4C(=O)O)o3)C2)n1`: -2.56%.
Next, `Cc1nc(C(=O)N2CCc3[nH]nc(Nc4ccccc4)c3C2)co1`: -1.67%; `Cc1ccnc(C2(C)CCCN2S(=O)(=O)c2cccnc2)n1` (centres undefined): -3.08%.
With `Cc1ccnc(C2(C)CCCN2S(=O)(=O)c2c(C)noc2C)n1` (centres undefined), the cytotoxicity at 70.5 h was 1.94%.
Regarding `Cc1ccnc(C2CN(Cc3ccc(-c4ccccc4C(=O)O)o3)C2)n1`, the cytotoxicity at 70.5 h is -0.616%.
Take `O=C(CCn1cccn1)N1CCC(c2nnc(-c3ccccn3)o2)CC1`: the cytotoxicity at 70.5 h came out at 3.01%.
Take `O=C(CC1CCCC1)N1CCC(c2nnc(-c3ccccn3)o2)CC1`: the cytotoxicity at 70.5 h worked out at 31.3%.
As for `O=C(c1ccncc1)N1CCc2[nH]nc(Nc3ccccc3)c2C1`, the figure is 21.7%.
In the case of `Cc1cc(C(F)F)nn1C(C)C(=O)NCc1nccn1C` (centres undefined), the cytotoxicity at 70.5 h is -0.123%.
For the compound `CC(C)(C)Nc1c(C2CCN(C(=O)C3CC3)CC2)nc2ccccn12`, the cytotoxicity at 70.5 h is 17.8%.
For the compound `Cn1ncc(Cl)c1C(=O)NCCN1CCC(O)(c2ccc(F)cc2)CC1`, the cytotoxicity at 70.5 h was determined as 5.46%.
For the compound `O[C@H]1CCN(CCCOc2ccccc2F)C[C@@]12CCCO2`, the cytotoxicity at 70.5 h stood at 18.1%.
For `c1cc(C2CCN(c3cncnc3)CC2)ccn1`, the cytotoxicity at 70.5 h was found to be 1.76%.
As for `CC(C)N1CCC(c2cnc(-c3cn[nH]c3)cn2)CC1`, the figure is 2.32%.
Next, `O=C1N[C@H]2OCCC[C@H]2[C@H](c2ccc(C(=O)O)cc2)N1`: 12.6%; `O=C(O)c1ccccc1-n1cc(CN2CCOC(c3cc[nH]n3)C2)cn1` (centres undefined): -12.9%; `CCC(=O)N1CCCCC1c1nc(O)c2c(n1)CN(S(C)(=O)=O)CC2` (centres undefined): 12.1%.
Take `CCC(=O)N1CCCCC1c1nc(O)c2c(n1)CN(C(C)=O)CC2` (centres undefined): the cytotoxicity at 70.5 h was -2.47%.
Take `Cn1cnc(NC(=O)C2CC(=O)N(c3cccc(F)c3)C2)n1` (centres undefined): the cytotoxicity at 70.5 h turned out to be 18.3%.
For `COc1ccc2c(c1)CC(C1CCOCC1)N(C(=O)c1cnccn1)C2` (centres undefined), the cytotoxicity at 70.5 h was determined as 0.645%.
As for `Cc1cc(C)nc(Nc2cc(C)nc(C3CCN(C(=O)CO)C3)n2)n1` (centres undefined), the cytotoxicity at 70.5 h was -7.3%.
With `CCCC(=O)N1CCCCC1c1nc(N(C)C)ncc1-c1cc(C)no1` (centres undefined), the cytotoxicity at 70.5 h is -2.48%.
As for `Cc1nc(-c2ccc(C(=O)O)cc2)cc(C2CCCN(C(C)C)C2)n1` (centres undefined), the cytotoxicity at 70.5 h amounted to 9.4%.
For `O=C(O)c1ccccc1-c1ccc(CN2CCCC(O)C2)cc1` (centres undefined), the cytotoxicity at 70.5 h is -8.74%.
With `Cc1ncncc1C(=O)N1CCCC(Cc2nccs2)C1` (centres undefined), the cytotoxicity at 70.5 h was -4.31%.
As for `O=C(c1cccnc1)N1CCCC(Cc2nccs2)C1` (centres undefined), the figure is -6.74%.
With `CCOc1ccc(CC(=O)N2CCN(c3nccn3C)CC2)cc1`, the cytotoxicity at 70.5 h is -2.2%.
For `O=C(Cc1ccc(F)cc1)N1CCN(CC(O)C2CC2)CC1` (centres undefined), the cytotoxicity at 70.5 h was -1.1%.
Regarding `Cc1ncc2c(n1)C1(CCN(C(=O)C(C)C)CC1)OCC2`, the cytotoxicity at 70.5 h was -6.13%.
Next, `Fc1cccc(F)c1Cn1c(C2CCCNC2)cc2cccnc21` (centres undefined): -5.53%; `Cc1nc2cc(-c3nccn3C)nn2c(N2CCCC(O)C2)c1C` (centres undefined): 0.494%.
With `COCCn1c(=O)n(C)c(=O)c2ccc(C3CCC(CN)CC3)nc21` (centres undefined), the cytotoxicity at 70.5 h was -6.32%.
As for `FC(F)(F)c1nc(C2CCCNC2)no1` (centres undefined), the figure is -0.742%; as for `Cc1nc(Cc2ccc(F)cc2)cc(C2COCCN2)n1` (centres undefined), 2.37%; as for `Cc1nc(NC2CCCCC2)cc(C2CCCNC2)n1` (centres undefined), 26.4%.
For `Cn1ccnc1CNC(=O)c1cnc(C2CCNCC2)cn1`, the cytotoxicity at 70.5 h came to 28.1%.
Turning to `O[C@@H]1CN(Cc2ccc(F)cc2)CC[C@H]1NCc1ccccn1`, the cytotoxicity at 70.5 h is 15.4%.
With `c1ccc(CNc2cc(C3CCCNC3)ccn2)nc1` (centres undefined), the cytotoxicity at 70.5 h worked out at 20.2%.
Turning to `COc1cccc(Nc2nc(C3CCCNC3)c3sc(C)c(C)n23)c1` (centres undefined), the cytotoxicity at 70.5 h is -12%.
As for `COc1cccc(-c2noc(C3CCN(CC4CCCCC4)C3)n2)c1` (centres undefined), the cytotoxicity at 70.5 h worked out at 18.2%.
Turning to `OC(CN1CCN(Cc2ccc(F)cc2)CC1)C1CC1` (centres undefined), the cytotoxicity at 70.5 h was -1.06%.
As to `OC(CN1CCN(Cc2ccc(F)c(F)c2)CC1)C1CC1` (centres undefined), the cytotoxicity at 70.5 h was 0.728%.
As to `CN(C)c1cc(C2CCCNC2)ccn1` (centres undefined), the cytotoxicity at 70.5 h was determined as 4.83%.
As for `Cc1cccc(-c2noc(C)c2C(=O)NC2CCCOC2)c1` (centres undefined), the figure is -10.9%.
On to `Cc1nc2sccn2c1CNC1(c2ccccc2F)CCCC1`, for which the cytotoxicity at 70.5 h was -8.91%.
Regarding `CN(C)CCCN(Cc1cnn(C)c1)Cc1ccco1`, the cytotoxicity at 70.5 h was -2.57%.
Turning to `CCC(CN1CCCC1)NC(=O)C1(c2cccc(F)c2)CC1` (centres undefined), the cytotoxicity at 70.5 h is -6.19%.
